US8609712B2, “Purification of progesterone receptor modulators” (Wyeth LLC, priority 0205, dated 2013)
In brackets after ≈: the same amount, converted by molar mass. Values belong to the molecule of their own block, whether it stands above or below them.

Columns and labels:
Solubility in DMF = details: solvent DMF
physchem = details: organic solvent or mixture
[1] = Solubility of the isolated salt in NMP / DMPU; format: physicochemical
Procedure: 6-Bromo-4,4-dimethyl-benzoxazine-2-one (2.59 g) was dissolved in THF (50 mL) at ambient temperature followed by addition of sodium tert-butoxide (0.96 g). The mixture was gently heated until a solution was obtained.
Similarly, 6-bromo-4,4-dimethyl-benzoxazine-2-one (2.55 g) was reacted with lithium tert-butoxide (10 mL of 1M solution in THF).

Molecule: 5′-(5-cyano-1-methyl-1H-pyrrol-2-yl)spiro[cyclohexane-1,3′-[3H]indol]-2′-ylidenecyanamide choline salt
solubility in DMF (Solubility in DMF): 11000 µg/mL

solubility (physchem): 3000 µg/mL (≈ 9.11 mM)
Molecule: Cn1c(C#N)ccc1-c1ccc2c(c1)C1(CCCCC1)C(=NC#N)N2 [5′-(5-Cyano-1-methyl-1H-pyrrol-2-yl)spiro[cyclohexane-1,3′-[3H]indol]-2′-ylidenecyanamide]

solubility in dimethylpyrimidone (DMPU) ([1]; without heating): soluble
Molecule: CC1(C)OC(=O)Nc2ccc(Br)cc21.[Li] [6-Bromo-4,4-Dimethyl-Benzoxazine-2-One Lithium Salt]

solubility in N-methylpyrrolidone (NMP) and dimethylpyrimidone (DMPU) ([1]; solvents heated to about 40 to about 50° C.): soluble
Molecule: CC1(C)OC(=O)Nc2ccc(Br)cc21.[Na] [6-Bromo-4,4-Dimethyl-Benzoxazine-2-One Sodium Salt]
